We go through one compound from ChEMBL document CHEMBL4049391, “Vicinal diaryl azole-based urea derivatives as potential cholesterol lowering agents acting through inhibition of SOAT enzymes” (Eur J Med Chem, 2017).

SMILES strings stand for the structures. The source made the active and inactive calls. The rule behind the calls is not given here.

Series [1] concerns Rattus norvegicus. Put plainly: Acute toxicity in Wistar rat assessed as macroscopic lesions in adrenal gland at 2000 mg/kg, po administered as single dose measured up to 14 days. The class given is organism-based. The conditions noted are these: in vivo, 336 h.
Series [2] deals with Rattus norvegicus. Put plainly: Anti-atherosclerosis activity in high cholesterol diet-induced Wistar rat atherogenesis model assessed as reduction in fatty streak formation in thoracic aorta at 30 mg/kg, po administered once daily measured after 4 weeks by Sudan red 4 staining based photographic method. The class given is functional, organism-based.
For series [3], the system named is Rattus norvegicus. Put plainly: Acute toxicity in Wistar rat assessed as effect on gastrointestinal tract at 2000 mg/kg, po administered as single dose measured up to 14 days. The class given is organism-based. The conditions noted are these: in vivo, 336 h.
Series [4] deals with Rattus norvegicus. Put plainly: Acute toxicity in Wistar rat assessed as hematological changes at 60 mg/kg, po administered as repeated dosing for 28 days. The class given is organism-based. The conditions noted are these: in vivo, 672 h.
For series [5], the system named is Rattus norvegicus. Put plainly: Acute toxicity in Wistar rat assessed as macroscopic lesions in kidney at 2000 mg/kg, po administered as single dose measured up to 14 days. The class given is organism-based. The conditions noted are these: in vivo, 336 h.
The subject of series [6] is Rattus norvegicus. Put plainly: Acute toxicity in Wistar rat assessed as effect on urinary excretion at 60 mg/kg, po administered as repeated dosing for 28 days. The class given is organism-based. As to conditions: in vivo, 672 h.
Series [7] relates to Rattus norvegicus. Put plainly: Acute toxicity in Wistar rat assessed as macroscopic lesions in heart at 2000 mg/kg, po administered as single dose measured up to 14 days. As to conditions: in vivo, 336 h. The class given is organism-based.
For series [8], the system named is Rattus norvegicus. Put plainly: Toxicity in Wistar rat assessed as cutaneous toxicity at 10 to 30 mg/kg, po administered once daily measured after 4 weeks. The class given is organism-based. As to conditions: in vivo, 672 h.
In series [9] the test system is Rattus norvegicus. Put plainly: Anti-atherosclerosis activity in high cholesterol diet-induced Wistar rat atherogenesis model assessed as reduction in VLDL-cholesterol level at 10 to 30 mg/kg, po administered once daily measured after 4 weeks. The class given is functional, organism-based.
Series [10] concerns Rattus norvegicus. Put plainly: Anti-atherosclerosis activity in po dosed high cholesterol diet-induced Wistar rat atherogenesis model assessed as increase in HDL-cholesterol level administered once daily measured after 4 weeks. The class given is functional, organism-based.
For series [11], the system named is Rattus norvegicus. Put plainly: Acute toxicity in Wistar rat assessed as change in body weight at 60 mg/kg, po administered as repeated dosing for 28 days. The class given is organism-based. The conditions noted are these: in vivo, 672 h.
Series [12] concerns Rattus norvegicus. Put plainly: Acute toxicity in Wistar rat assessed as effect on viscera at 2000 mg/kg, po administered as single dose measured up to 14 days. The class given is organism-based. As to conditions: in vivo, 336 h.

As to `CCCCNC(=O)Nc1ccc(-c2sc(C)nc2-c2ccc(C)cc2)cc1`, the Activity result in the series with Rattus norvegicus [1], with Rattus norvegicus [3], in the series with Rattus norvegicus [4], in the series on Rattus norvegicus [5], in the series with Rattus norvegicus [6] and in the series on Rattus norvegicus [7] was “Non-Toxic” throughout. Moreover, the Activity entry in the series on Rattus norvegicus [8] is “Non-Toxic”; in the series on Rattus norvegicus [10] it was “Dose-dependent effect”; in the series with Rattus norvegicus [11] it was “Non-Toxic”; with Rattus norvegicus [12], “Non-Toxic”. The result in the series on Rattus norvegicus [2] was Active. For the same compound, the result in the series on Rattus norvegicus [9] was inactive.
